Results taken from ChEMBL document CHEMBL1811818, “Arthrobotrisins A-C, oligosporons from the nematode-trapping fungus Arthrobotrys oligospora” (2011).
Calls of active or inactive are those of the source. No cut-off for these calls is given here.

Assays:
[1] = system: Bacillus subtilis; assay: Antibacterial activity against Bacillus subtilis 3.34 at 25 ug by agar diffusion assay; format: functional; details: read-out: IZ
[2] = system: Bacillus subtilis; assay: Antibacterial activity against Bacillus subtilis 3.34 at 50 ug by agar diffusion assay; format: functional; details: read-out: IZ
[3] = system: Bacillus subtilis; assay: Antibacterial activity against Bacillus subtilis 3.34 assessed as by agar diffusion assay; format: functional
[4] = system: Bacillus sp.; assay: Antibacterial activity against Bacillus sp. 3.38 at 50 ug by agar diffusion assay; format: functional; details: Bacillus sp. (in: firmicutes), read-out: DIZ
[5] = system: Staphylococcus aureus; assay: Antibacterial activity against Staphylococcus aureus 3.17 at 50 ug by agar diffusion assay; format: functional; details: read-out: DIZ
[6] = system: Panagrellus redivivus; assay: Nematicidal activity against Panagrellus redivivus assessed as effect on larval development at 200 ug/mL after 48 hrs; format: functional, organism-based
[7] = system: Bacillus sp.; assay: Antibacterial activity against Bacillus sp. 3.38 at 150 ug by agar diffusion assay; format: functional; details: Bacillus sp. (in: firmicutes), read-out: IZ
[8] = system: Bacillus sp.; assay: Antibacterial activity against Bacillus sp. 3.38 at 300 ug by agar diffusion assay; format: functional; details: Bacillus sp. (in: firmicutes), read-out: IZ
[9] = system: Bacillus subtilis; assay: Antibacterial activity against Bacillus subtilis 3.34 at 10 ug by agar diffusion assay; format: functional; details: read-out: DIZ

MIC [3] | SMILES | zone of inhibition at 25 µg/disc [1] | zone of inhibition at 50 µg/disc [2] | zone of inhibition at 50 µg/disc [4] | zone of inhibition at 50 µg/disc [5] | Activity [6] | zone of inhibition at 150 µg/disc [7] | zone of inhibition at 300 µg/disc [8] | zone of inhibition at 10 µg/disc [9]
5 µg | CC(C)=CCC/C(C)=C/C[C@H](O)/C(C)=C/[C@H](O)[C@]12O[C@H]1[C@@H](O)C(CO)=C[C@@H]2O [ARTHROBOTRISIN C] | 14.2 mm | 19.4 mm | 9.1 mm | 7 mm | inactive | – | – | –
– | CC(C)=CCC/C(C)=C/C[C@H](O)/C(C)=C/[C@H](O)[C@]12O[C@H]1[C@H](O)C(CO)=C[C@@H]2O [ARTHROBOTRISIN B] | – | – | – | – | inactive | 4.7 mm | 8 mm | –
– | O=C(N[C@H](CO)[C@H](O)c1ccc([N+](=O)[O-])cc1)C(Cl)Cl [CHLORAMPHENICOL] | – | – | – | – | – | – | – | 36.3 mm
